The structures appear in SMILES notation. Like-named read-outs stand apart in the source and are kept apart here.

A short description of data set [1]: Metabolic inactivation by human liver microsomes in vitro (radio-HPLC). The data set is classed as in vitro ADME. The settings on record: for half-life at 0.17 MBq/ml: human, pH 7.2, 125I-labeled compound, liver microsomes 0.2 mg/ml, NADPH, 37 °C, mean ± S.D., read-out: In vitro T1/2 in human liver microsomes; for Metabolic stability compared with [125I]IMTO: radio-HPLC. The method, then:
Metabolic degradation was determined by co-incubation of the tracers with human liver microsomes (Sigma, M0317). Experiments were conducted in triplicates. Incubation mixtures consisted of liver microsomes (0.2 mg/ml), the respective ^125I-labeled compound (0.1 MBq), MgCl2 (3.3 mM), and NADPH (1.3 mM) in a total volume of 0.6 ml K3PO4 puffer (25 mM, pH 7.2). The reaction was started with the addition of NADPH and incubated at 37 °C. At predefined time points, aliquots were removed, and the reaction was terminated by adding 160 µL ice-cold methanol. After centrifugation (5000 × g, 4 °C for 4 min), the supernatant was analyzed by radio-HPLC (see experimental details and Supplementary Fig. 1 in Supplement).

The next data set has as its target T1, human CYP11B2 (Homo sapiens, UniProt P19099).
T1 construct: expressed in transfected cells; host or cells: murine adrenocortical cancer cell line Y1 (Y1-hsCyp11B2, stably transfected)
T1 sequence (P19099 25-503): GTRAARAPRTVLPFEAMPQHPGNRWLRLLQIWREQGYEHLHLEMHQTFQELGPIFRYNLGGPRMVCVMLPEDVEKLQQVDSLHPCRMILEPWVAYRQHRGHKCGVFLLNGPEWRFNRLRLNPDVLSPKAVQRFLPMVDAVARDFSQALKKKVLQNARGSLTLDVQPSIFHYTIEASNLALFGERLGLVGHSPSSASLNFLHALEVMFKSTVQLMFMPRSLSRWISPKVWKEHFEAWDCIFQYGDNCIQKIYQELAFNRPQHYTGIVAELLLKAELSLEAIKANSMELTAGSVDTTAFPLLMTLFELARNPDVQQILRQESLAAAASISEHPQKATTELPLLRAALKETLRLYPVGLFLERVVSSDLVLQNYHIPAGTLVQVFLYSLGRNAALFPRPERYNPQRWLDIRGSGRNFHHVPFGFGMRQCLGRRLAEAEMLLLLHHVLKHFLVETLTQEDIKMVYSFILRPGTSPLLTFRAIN
Put plainly: Inhibition of CYP11B2 in stably transfected Y1-hsCyp11B2 cells. The data set is classed as cell-based. The method, then: (§1) The human adrenocortical cell line NCI-H295 and the murine adrenocortical cancer cell line Y1 transfected with either human CYP11B1 or CYP11B2 were used for determination of IC50 values as already described.
(§2) IC50 values were calculated from all values using the program GraphPad Prism5®. All results are expressed as mean ± standard deviation.

In another data set the target is T2, human CYP11B1 (Homo sapiens, UniProt P15538).
T2 construct: expressed in transfected cells; host or cells: murine adrenocortical cancer cell line Y1 (Y1-hsCyp11B1, stably transfected)
T2 sequence (P15538 25-503): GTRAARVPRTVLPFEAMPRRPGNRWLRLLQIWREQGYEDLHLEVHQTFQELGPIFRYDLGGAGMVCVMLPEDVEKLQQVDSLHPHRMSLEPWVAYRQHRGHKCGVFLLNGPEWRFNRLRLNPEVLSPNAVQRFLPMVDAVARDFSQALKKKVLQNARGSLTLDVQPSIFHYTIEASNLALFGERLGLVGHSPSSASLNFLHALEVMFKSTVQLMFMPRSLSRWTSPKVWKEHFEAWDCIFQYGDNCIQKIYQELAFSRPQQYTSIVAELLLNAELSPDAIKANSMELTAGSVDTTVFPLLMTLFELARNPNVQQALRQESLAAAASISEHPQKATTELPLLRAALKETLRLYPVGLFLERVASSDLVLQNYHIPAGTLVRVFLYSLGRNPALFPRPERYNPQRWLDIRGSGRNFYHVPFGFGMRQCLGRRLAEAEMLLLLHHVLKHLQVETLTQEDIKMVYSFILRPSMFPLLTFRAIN
In words: Inhibition of CYP11B1 in stably transfected Y1-hsCyp11B1 cells. The class given is cell-based. The method, then:
as §1, §2

Another data set relates to NCI-H295 cells. Put plainly: Steroid secretion in NCI-H295 cells after 48-h incubation. The data set is classed as cell-based, human. As to conditions: for Production of the investigated hormones: higher concentrations; for Upstream steroids 17-OH-progesterone and androstenedione: lower concentrations 0.1-10 nM. The method, then: as §1
Fig. 2 Steroid secretion in NCI-H295 cells after 48-h incubation with IMTO, IMAZA, 3-tetrahydrofurylester, and 2,2-difluoroethylester (0.1–10,000 nM). NCI-H295 cells were incubated for 48 h with the four compounds. Each experiment was performed in triplicates. At the end of the incubation period, steroid hormones (cortisol, aldosterone, 17-OH-P, and androstenedione) were determined in the cell supernatant by commercially available assays

A short description of data set [2]: Lipophilicity estimated from HPLC retention times.
The subject of data set [3] is advanced ACC. In words: Diagnostic imaging and biokinetics with [123I]IMTO and [123I]IMAZA in patients with advanced ACC. The data set is classed as in vivo, human. The settings on record: kinetics recalculated for 131I from 123I diagnostics in patients. The method, then:
Three patients (#1, #2, and #3) were investigated by [^123I]IMAZA (administered doses, 117, 163, and 182 MBq, respectively) and subsequently by [^123I]IMTO (176, 169, and 146 MBq, respectively). The time interval between the imaging studies was at least 5 days. Scintigraphic imaging was performed using a Siemens Symbia dual-head gamma camera equipped with medium-energy parallel-hole collimators. Activity concentration was measured in whole blood samples drawn at 2 min, 5 min, 15 min, 1 h, 2.5 h, 5 h, and 23 h after the administration. Plasma activity was analyzed in patient #1.

Data set [4] concerns metastatic ACC. Put plainly: Dosimetry and endoradiotherapy with [131I]IMAZA in a patient with metastatic ACC. The settings on record: patient #1, derived from diagnostics with [123I]IMTO. The data set is classed as in vivo, human. An excerpt: Patient #1 had experienced disease progression with a more than fourfold increase in their dominant lesions within only 4 months after a phase of disease stabilization after standard treatment with mitotane and eight courses of combination chemotherapy with etoposide, doxorubicin, and cisplatin. They received therapeutic doses with 28.2 GBq [^131I]IMAZA 1 month and with 30.5 GBq [^131I]IMAZA 7 months after the evaluation with [^123I]IMAZA. Prior to the first treatment, the absorbed dose to the blood was measured with a tracer activity of 72 MBq [^131I]IMAZA as a surrogate for the exposure of the dose-limiting organ, the red bone marrow. The absorbed dose to the blood was estimated from assessments of the activity kinetics in total body and blood up to 48 h when the mean activity concentrations had dropped to 5% of the values at 5 min after the administration in the total body and to 1% in the blood. During therapy, the total body activity retention was measured with a survey meter in the ceiling over the patient’s bed. Gamma camera whole body scans accompanied by blood sampling were acquired starting 4 days post-administration after the first and 2 days after the second therapy until dismissal. SPECT/CT imaging was performed after 4 and 5 days, respectively.
Tumor evaluation was performed by [^18F]FDG PET/CT at baseline and 2, 5, 8, 11, 14, and 21 months after administration of the first treatment dose. Subsequently, the patient declined further follow-up imaging or additional therapeutic interventions.

Data set [5] has as its system metastatic ACC. Described as above. The class given is in vivo, human. The settings on record: patient #1, derived from diagnostics with [123I]IMTO. This is another data set of the same source.
For data set [6], the system named is advanced ACC. More on the design: method as in PMID 15898346, PMID 29452402. The settings on record: advanced ACC ref 10, 11; cited from earlier work.

By melting point is commonly meant the temperature of the solid-liquid transition. `COC(=O)c1cncn1[C@H](C)c1ccc(I)cc1` [Compound 1, (R)-1-[1-(4-Iodophenyl)ethyl]-1H-imidazole-5-carboxylic acid methyl ester] came in with a melting point of 72 to 74 °C. For the same compound, the half-life at 0.17 MBq/ml in [1] (human liver microsomes) stood at 7.3 ± 3.6 min.

A word on the IC50: it is the concentration that gives 50% inhibition. With `C[C@H](c1ccc(I)cc1)n1cncc1C(=O)O` [Compound 2, (R)-1-[1-(4-Iodophenyl)ethyl]-1H-imidazole-5-carboxylic acid], the melting point was > 250 °C (dec.). The compound further yielded an IC50 against human CYP11B2 of 611 ± 1040 nM.

As for `C[C@H](c1ccc(I)cc1)n1cncc1C(=O)OC1CCOC1` (stereo partly drawn) [Compound 3, (R)-1-[1-(4-Iodophenyl)ethyl]-1H-imidazole-5-carboxylic acid 3-tetrahydrofurylester], the IC50 against human CYP11B1 was determined as 5.3 ± 5.9 nM; against human CYP11B2, 2.9 ± 1.6 nM. Besides, the “Metabolic stability compared with [125I]IMTO” value in [1] (human liver microsomes) was “nearly equal or even better metabolic stability”. For the same compound, the half-life at 0.17 MBq/ml in [1] is 7.4 ± 2.8 min. The “Production of the investigated hormones” value with NCI-H295 cells is “completely stopped”. For the same compound, in the data set on NCI-H295 cells, the “Upstream steroids 17-OH-progesterone and androstenedione” value is “accumulation of the upstream steroids 17-OH-progesterone and androstenedione was observed”. The “Lipophilicity compared with IMTO” value in data set [2] was “comparable”.

With `C[C@H](c1ccc(I)cc1)n1cncc1C(=O)OCC(F)F` [Compound 4, (R)-1-[1-(4-Iodophenyl)ethyl]-1H-imidazole-5-carboxylic acid 2,2-difluoroethylester], the IC50 against human CYP11B1 amounted to 0.3 ± 0.4 nM. The compound further displayed an IC50 at human CYP11B2 of 4.5 ± 0.5 nM. Besides, the “Metabolic stability compared with [125I]IMTO” value in data set [1] (human liver microsomes) was “nearly equal or even better metabolic stability”. In addition, in [1], the half-life at 0.17 MBq/ml turned out to be 7.5 ± 0.87 min. Moreover, in the data set on NCI-H295 cells, the “Production of the investigated hormones” value is “completely stopped”; the “Upstream steroids 17-OH-progesterone and androstenedione” value was “accumulation of the upstream steroids 17-OH-progesterone and androstenedione was observed”. In [2], the “Lipophilicity compared with IMTO” value is “comparable”.

For the compound `C[C@H](c1ccc(I)cc1)n1cncc1C(=O)N1CCC1` [Compound 5, (R)-1-[1-(4-Iodophenyl)ethyl]-1H-imidazole-5-carboxylic acid azetidinylamide], the IC50 at human CYP11B1 (stably transfected Y1-hsCyp11B1 cells, substrate deoxycortisol (1 µM), mean of at least three experiments in duplicates, read-out: IC50 CYP11B1) is 3.2 ± 0.1 nM. Also, the IC50 on human CYP11B2 (stably transfected Y1-hsCyp11B2 cells, substrate 11-deoxycorticosterone (1 µM), mean of at least three experiments in duplicates, read-out: IC50 CYP11B2) is 1.2 ± 0.1 nM. Moreover, the half-life at 0.17 MBq/ml in data set [1] (human liver microsomes) came out at 26.1 ± 5.5 min. Besides, in the data set with NCI-H295 cells, the “Production of the investigated hormones” value was “completely stopped”; the “Upstream steroids 17-OH-progesterone and androstenedione” value was “accumulation of the upstream steroids 17-OH-progesterone and androstenedione was observed”. In addition, the “Lipophilicity compared with IMTO” value in [2] is “lower”.

For the compound `COC(=O)c1cncn1C(C)c1ccc([131I])cc1` (stereo not shown) [[^131I]IMTO], the “Mean blood absorbed dose” value in the data set with advanced ACC [3] is reported as 0.11 Gy/GBq. The Blood absorbed dose in the data set with metastatic ACC [4] was 0.17 Gy/GBq. In addition, the “Residence time per liter of whole blood” value in the data set on metastatic ACC [5] stood at 0.55 h.

Turning to `Clc1ccc(C(c2ccccc2Cl)C(Cl)Cl)cc1` (stereo not shown) [mitotane], the Response rate in the data set with advanced ACC [6] was not above 24%.

Values taken from article PMC8712301, “Novel CYP11B-ligand [^123/131I]IMAZA as promising theranostic tool for adrenocortical tumors: comprehensive preclinical characterization and first clinical experience” (European Journal of Nuclear Medicine and Molecular Imaging, 2021).
